{"source": "paper PMC2358886", "about": "“Evolution of pharmacologic specificity in the pregnane X receptor” (BMC Evolutionary Biology, 2008)", "key": {"Ciona VDR/PXR": {"test_system": "Ciona VDR/PXR", "assay": "Activation of Ciona VDR/PXR (LBD/GAL4 chimeric receptor) luciferase reporter assay", "assay_type": "cell-based, Ciona intestinalis", "settings": "screening; reference maximal activator 20 μM 6-formylindolo-[3,2-b]carbazole", "description": "The LBD of Ciona VDR/PXR was cloned from cDNA fragments generously provided by Professors Yuji Kohara and Norituki Satoh, and then inserted into the PM2-GAL4 plasmid to create an LBD/GAL4 chimeric receptor.\nThe LBD of Xenopus tropicalis (Western clawed frog) PXR (xtPXR) was cloned by PCR from RNA extracted from ovary of an adult female frog. Ciona VDR/PXR was cloned from cDNA fragments ciem829d05 and cilv048e18 provided by Professor Yuji Kohara (Center for Genetic Resource Information, National Institute of Genetics, Research Organization of Information and Systems, Mishima, Japan) and Professor Noriyuki Satoh (Kyoto University, Kyoto, Japan), with analysis of the cDNA clones supported by Grant-in-aid for Scientific Research on Priority Area \"Genome\" of Ministry of Education, Culture, Sports, Science and Technology, Japan.\nThe creation of a HepG2 (human liver) cell line stably expressing the human Na^+-taurocholate cotransporter (NTCP) has been previously reported. HepG2-NTCP cells were grown in modified Eagle's medium-α containing 10% fetal bovine serum and 1% penicillin/streptomycin (Invitrogen, Carlsbad, CA, USA). Plasmids containing cDNAs for 8 PXRs from 7 species (human, mouse, rat, rabbit, chicken [also called chicken X receptor, CXR], African clawed frog [also termed Xenopus laevis benzoate X receptors α and β, BXRα and BXRβ ], zebrafish), as well as the reporter constructs tk-UAS-Luc and CYP3A4-PXRE-Luc, and 'empty' vectors pCDNA, PsG5, and PM2 were generously provided by SA Kliewer, JT Moore, and LB Moore (GlaxoSmithKline, Research Triangle Park, NC, USA). […] For the full-length expression vectors, the reporter plasmid was CYP3A4-PXRE-Luc, a construct that contains a promoter element from CYP3A4 (recognized by PXR DBDs) driving luciferase expression. For the GAL4/LBD expression constructs, the reporter plasmid was tk-UAS-Luc, which contains GAL4 DNA binding elements driving luciferase expression. The following transfection ratios of reporter, receptor, and β-galactosidase plasmids were used (ng/well): human, mouse, rabbit, and rat PXRs – 25/2.7/20; chicken PXR – 10/1/20; Xenopus tropicalis PXR, zebrafish PXR, and Ciona VDR/PXR – 75/50/20.\nThe PXR activation assay was a luciferase-based reporter assay. On day 1, 30,000 cells/well were seeded onto 96-well white opaque plates (Corning-Costar, Corning, NY, USA). On day 2, cells were transfected using the calcium phosphate precipitation method with expression vector or 'empty' control vector and luciferase reporter plasmid. On day 3, the cells were washed and then incubated with medium containing charcoal-dextran treated fetal bovine serum (Hyclone, Logan, UT, USA) and drugs or vehicle. On day 4, the cells were washed and the medium replaced with serum-free medium. […]"}, "mouse PXR": {"target": "T1, mouse PXR (Mus musculus, UniProt O54915)", "T1 sequence (O54915 1-431)": "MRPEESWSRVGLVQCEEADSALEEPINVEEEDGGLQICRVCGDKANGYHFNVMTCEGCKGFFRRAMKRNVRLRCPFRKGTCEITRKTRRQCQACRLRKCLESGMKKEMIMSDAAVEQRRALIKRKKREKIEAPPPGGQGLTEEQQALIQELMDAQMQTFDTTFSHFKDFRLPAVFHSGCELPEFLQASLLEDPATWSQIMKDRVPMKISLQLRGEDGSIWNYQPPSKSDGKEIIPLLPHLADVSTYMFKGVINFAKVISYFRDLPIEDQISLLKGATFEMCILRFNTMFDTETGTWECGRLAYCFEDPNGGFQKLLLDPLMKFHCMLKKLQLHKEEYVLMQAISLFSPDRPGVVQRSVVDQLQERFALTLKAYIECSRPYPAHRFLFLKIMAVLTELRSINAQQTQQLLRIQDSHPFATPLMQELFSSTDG"}, "chicken PXR [1]": {"target": "T2, chicken PXR (Gallus gallus, UniProt Q9DFH3)", "T2 sequence (Q9DFH3 1-391)": "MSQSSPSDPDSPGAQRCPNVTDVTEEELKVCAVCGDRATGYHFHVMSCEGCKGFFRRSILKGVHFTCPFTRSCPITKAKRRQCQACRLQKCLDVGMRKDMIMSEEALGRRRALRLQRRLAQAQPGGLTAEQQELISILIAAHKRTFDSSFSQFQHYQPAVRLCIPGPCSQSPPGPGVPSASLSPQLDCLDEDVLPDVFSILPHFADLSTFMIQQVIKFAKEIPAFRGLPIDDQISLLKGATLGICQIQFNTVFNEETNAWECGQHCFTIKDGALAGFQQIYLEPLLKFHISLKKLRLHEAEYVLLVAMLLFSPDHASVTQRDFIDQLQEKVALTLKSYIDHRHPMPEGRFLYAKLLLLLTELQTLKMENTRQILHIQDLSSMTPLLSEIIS", "settings": "for Chicken PXR Activity: -log(EC50), EC50 in molar units"}, "rat PXR": {"target": "T3, rat PXR (Rattus norvegicus, UniProt Q9R1A7)", "T3 sequence (Q9R1A7 1-431)": "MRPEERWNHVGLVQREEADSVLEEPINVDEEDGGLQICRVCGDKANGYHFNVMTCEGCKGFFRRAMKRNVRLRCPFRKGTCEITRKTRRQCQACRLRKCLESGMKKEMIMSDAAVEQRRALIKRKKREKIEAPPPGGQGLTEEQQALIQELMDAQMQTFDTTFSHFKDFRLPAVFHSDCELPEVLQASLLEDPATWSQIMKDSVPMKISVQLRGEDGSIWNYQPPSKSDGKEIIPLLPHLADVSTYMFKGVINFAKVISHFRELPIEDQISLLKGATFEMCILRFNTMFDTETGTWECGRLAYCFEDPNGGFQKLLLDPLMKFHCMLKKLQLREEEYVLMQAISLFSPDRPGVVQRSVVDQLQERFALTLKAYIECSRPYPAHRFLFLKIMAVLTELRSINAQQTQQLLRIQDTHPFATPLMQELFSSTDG"}, "rabbit PXR [2]": {"target": "T4, rabbit PXR (Oryctolagus cuniculus, UniProt Q9TU02)", "T4 sequence (Q9TU02 1-411)": "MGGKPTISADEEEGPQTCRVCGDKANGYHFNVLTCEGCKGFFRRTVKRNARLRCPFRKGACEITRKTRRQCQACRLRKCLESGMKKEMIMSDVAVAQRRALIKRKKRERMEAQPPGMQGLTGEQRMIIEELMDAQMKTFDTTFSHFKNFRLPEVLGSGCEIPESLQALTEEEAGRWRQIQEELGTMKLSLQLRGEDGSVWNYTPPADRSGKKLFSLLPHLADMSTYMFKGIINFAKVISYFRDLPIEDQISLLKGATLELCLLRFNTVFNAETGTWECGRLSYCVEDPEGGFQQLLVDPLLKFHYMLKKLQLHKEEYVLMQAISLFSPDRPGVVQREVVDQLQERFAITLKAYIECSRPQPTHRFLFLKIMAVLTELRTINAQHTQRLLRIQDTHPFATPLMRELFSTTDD"}, "chicken PXR [3]": {"target": "T2, chicken PXR", "assay": "cell-based"}, "human PXR [4]": {"target": "T5, human PXR (Homo sapiens, UniProt O75469)", "T5 sequence (O75469 1-434)": "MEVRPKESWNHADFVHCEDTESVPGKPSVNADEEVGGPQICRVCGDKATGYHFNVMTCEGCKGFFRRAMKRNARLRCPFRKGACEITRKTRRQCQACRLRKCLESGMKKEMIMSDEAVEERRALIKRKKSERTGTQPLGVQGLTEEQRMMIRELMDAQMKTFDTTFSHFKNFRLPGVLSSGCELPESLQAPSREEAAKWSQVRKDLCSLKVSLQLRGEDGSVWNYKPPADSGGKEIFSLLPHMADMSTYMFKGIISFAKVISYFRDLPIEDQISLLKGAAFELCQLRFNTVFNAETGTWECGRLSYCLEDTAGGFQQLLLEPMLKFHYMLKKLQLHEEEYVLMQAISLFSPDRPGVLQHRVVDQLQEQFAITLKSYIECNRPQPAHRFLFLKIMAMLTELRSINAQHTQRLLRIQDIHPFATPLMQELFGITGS"}, "rabbit PXR [5]": {"target": "T4, rabbit PXR", "assay": "PXR activation luciferase reporter assay, rabbit PXR", "settings": "-log(EC50), EC50 in molar units"}, "zebrafish PXR": {"target": "T6, zebrafish PXR (Danio rerio, UniProt A5WYG8)", "T6 sequence (A5WYG8 144-430)": "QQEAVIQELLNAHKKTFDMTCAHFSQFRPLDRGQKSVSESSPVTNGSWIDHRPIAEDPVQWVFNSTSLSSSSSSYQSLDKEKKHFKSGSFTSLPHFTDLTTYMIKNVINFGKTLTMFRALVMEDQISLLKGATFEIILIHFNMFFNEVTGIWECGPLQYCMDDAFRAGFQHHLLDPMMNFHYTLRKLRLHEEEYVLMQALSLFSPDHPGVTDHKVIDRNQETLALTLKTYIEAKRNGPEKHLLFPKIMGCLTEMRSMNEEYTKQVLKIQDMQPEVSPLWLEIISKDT"}, "human PXR [6]": {"target": "T5, human PXR", "assay": "PXR activation luciferase reporter assay, human PXR in HepG2-NTCP cells", "settings": "hPXR Activity, -log(EC50), EC50 in molar units, activation of human PXR"}, "[7]": {"settings": "-log(EC50), EC50 in molar units"}, "[8]": {"settings": "-log(EC50), EC50 in molar units, activation of zebrafish PXR"}}, "note": "“Also recorded” adds a separate entry of the source. Read-outs that look alike come from different tables or passages of the source."}
{"compound": "6-formylindolo-[3,2-b]carbazole", "values": [{"measurement": "Activation of Ciona VDR/PXR (in words)", "setting": "Ciona VDR/PXR", "result": "low micromolar range; also recorded: robustly activated"}]}
{"compound": "C[C@H](CCC(=O)O)[C@H]1CC[C@H]2[C@@H]3C[C@@H](O)[C@@H]4C[C@H](O)CC[C@]4(C)[C@H]3CC[C@]12C", "note": "[BI004, Murideoxycholic acid]", "values": [{"measurement": "Mouse PXR Activity", "setting": "mouse PXR", "result": 5.09}, {"measurement": "Chicken PXR Activity", "setting": "chicken PXR [1]", "result": "No effect"}, {"measurement": "Rat PXR Activity", "setting": "rat PXR", "result": 4.80}, {"measurement": "Rabbit PXR Activity", "setting": "rabbit PXR [2]", "result": 4.52}]}
{"compound": "C[C@H](CCC(=O)O)[C@H]1CC[C@H]2[C@@H]3[C@H](O)C[C@@H]4C[C@H](O)CC[C@]4(C)[C@H]3CC[C@]12C", "note": "[BI005, Chenodeoxycholic acid]", "values": [{"measurement": "Chicken PXR efficacy, ε", "setting": "chicken PXR [1]; chicken", "result": "4.70 (ε = 0.36)"}, {"measurement": "Rat PXR Activity", "setting": "rat PXR", "result": "No effect"}, {"measurement": "Rabbit PXR efficacy, ε", "setting": "rabbit PXR [2]; rabbit", "result": "4.70 (ε = 0.42)"}, {"measurement": "EC50", "setting": "chicken PXR [3]", "result": 20, "unit": "µM"}]}
{"compound": "C[C@H](CCC(O)C(CO)COS(=O)(=O)O)[C@H]1CC[C@H]2[C@@H]3[C@H](O)C[C@@H]4C[C@H](O)CC[C@]4(C)[C@H]3C[C@H](O)[C@]12C", "note": "(stereo partly drawn) [BI034, 5β-Cholestan-3α,7α,12α,24,26-pentol-27-sulfate]", "values": [{"measurement": "hPXR Efficacy", "setting": "human PXR [4]", "result": 0.39}, {"measurement": "Mouse PXR efficacy, ε", "setting": "mouse PXR", "result": 0.85}, {"measurement": "Mouse PXR Activity", "setting": "mouse PXR; [7]", "result": 4.44}, {"measurement": "Chicken PXR efficacy, ε", "setting": "chicken PXR [1]", "result": 0.88}, {"measurement": "Chicken PXR Activity", "setting": "chicken PXR [1]", "result": 4.37}, {"measurement": "Toxicity", "setting": "HepG2 cells", "result": 200, "unit": "µM"}, {"measurement": "Rat PXR efficacy, ε", "setting": "rat PXR", "result": 0.85}, {"measurement": "Rat PXR Activity", "setting": "rat PXR; [7]", "result": 4.40}, {"measurement": "Rabbit PXR Activity", "setting": "rabbit PXR [5]", "result": 4.09}, {"measurement": "Rabbit PXR efficacy, ε", "setting": "rabbit PXR [2]", "result": 1.93}, {"measurement": "zfPXR Efficacy", "setting": "zebrafish PXR", "result": 0.13}, {"measurement": "zfPXR Activity", "setting": "zebrafish PXR; [8]", "result": 4.35}, {"measurement": "Activation of zebrafish PXR (in words)", "setting": "zebrafish PXR; bile salts", "result": "activated"}]}
{"compound": "CC(CCC[C@@H](C)[C@H]1CC[C@H]2[C@@H]3[C@H](O)C[C@@H]4C[C@H](O)CC[C@]4(C)[C@H]3C[C@H](O)[C@]12C)C(=O)NCCS(=O)(=O)O", "note": "(stereo partly drawn) [BI038, 3α,7α,12αtTrihydroxy-5β-cholestan-27-oic acid, taurine conjugated]", "values": [{"measurement": "hPXR Activity", "setting": "human PXR [4]", "result": "None"}, {"measurement": "Mouse PXR Activity", "setting": "mouse PXR", "result": "No effect"}, {"measurement": "Chicken PXR Activity", "setting": "chicken PXR [1]", "result": "No effect"}, {"measurement": "Toxicity", "setting": "HepG2 cells", "result": 200, "unit": "µM"}, {"measurement": "Rat PXR Activity", "setting": "rat PXR", "result": "No effect"}, {"measurement": "Rabbit PXR Activity", "setting": "rabbit PXR [2]", "result": "No effect"}, {"measurement": "zfPXR Activity", "setting": "zebrafish PXR; [8]", "result": "None"}]}
{"compound": "NC(=O)N1c2ccccc2C=Cc2ccccc21", "note": "[MI7, Carbamazepine]", "values": [{"measurement": "EC50", "setting": "human PXR [6]", "result": 63.1, "unit": "µM"}, {"measurement": "Toxicity", "setting": "HepG2 cells; human, 24 hr", "result": 200, "unit": "µM"}, {"measurement": "Activation of Ciona VDR/PXR (in words)", "setting": "Ciona VDR/PXR", "result": "micromolar range; also recorded: Weaker activation"}, {"measurement": "zfPXR Activity", "setting": "zebrafish PXR", "result": "None"}]}
